The target in data set [1] is KMO (Rattus norvegicus, UniProt O88867). Description: Inhibition of KMO. Conditions: read-out: IC50 for KMO. It counts as biochemical.
Data set [2] is described as follows: Ro 61-8048 levels in plasma and tissues of chronically JM6-treated R6/2 mice. It counts as in vivo.
The format of data set [3] is in vivo, mice. Conditions: 5 h.
Data set [4] can be described thus: Metabolic stability of Ro 61-8048. It counts as in vitro ADME. Conditions: data not shown.
The subject of data set [5] is KMO. Description: In vivo microdialysis in striatum and serum sampling of rats after acute JM6. The note with it: for Level in brain dialysate: JM6 100 mg/kg p.o., data not shown.
The test system of data set [6] is APPtg mice. Description: Elevated plus maze in APPtg mice. It counts as in vivo. The note with it: JM6 75 mg/kg/day p.o. for ~120 days.
Data set [7] has as its system APPtg mice. It counts as in vivo. Conditions: JM6 75 mg/kg/day p.o. for 120 days.
Data set [8] concerns APPtg mice. Description: Neuropathology. It counts as in vivo.
Data set [9] has as its system R6/2 mice. Description: Neuropathology. It counts as in vivo.
Data set [10] concerns APPtg mice. Description: Morris water maze in APPtg mice. It counts as in vivo.
Another data set deals with WT mice. Description: Chronic tolerability of JM6 in WT mice. It counts as in vivo. Conditions: JM6 25 mg/kg/day p.o. for 12 months, data not shown.
For data set [11], the system named is KMO. Description: In vivo microdialysis in prefrontal cortex of rats treated 7 days with JM6. The note with it: JM6 for 7 days, 100 mg/kg/day p.o. (legend: 75 mg/kg/day).
Data set [12] has as its system R6/2 mice. Description: Survival, body weight and rotarod in R6/2 mice. It counts as in vivo. The note with it: chronic JM6 p.o., data not shown. Background: Falling from the rotarod earlier than controls is read as motor impairment.
The target in data set [13] is kynurenine aminotransferase II (KAT II) (Rattus norvegicus, UniProt Q64602). Description: Reverse microdialysis of the KAT II inhibitor ESBA in JM6-treated rats. Conditions: JM6 100 mg/kg p.o., ESBA 1 mM locally for 2 h by reverse microdialysis. It counts as in vivo.
Setting [14] is: R6/2 mice chronically treated with JM6.
[15] abbreviates: WT mice, single JM6 300 mg/kg p.o., LC/MS.
The mark [16] stands for this setting: JM6 75 mg/kg/day p.o., data not shown.
[17] abbreviates: JM6 7.5 or 25 mg/kg/day p.o., 12-week-old mice.
Setting [18] is: WT mice, single JM6 300 mg/kg p.o., LC/MS, 300 mg/kg.

“And” between values parts separate entries of the source, which are not always exact repeats. Equal entries are not always repeated. Where two headings read alike, the source gives them in different places.

This is an account of results in paper PMC3118409 (Cell, 2011).

kynurenine aminotransferase II (KAT II), sequence (Q64602 30-425): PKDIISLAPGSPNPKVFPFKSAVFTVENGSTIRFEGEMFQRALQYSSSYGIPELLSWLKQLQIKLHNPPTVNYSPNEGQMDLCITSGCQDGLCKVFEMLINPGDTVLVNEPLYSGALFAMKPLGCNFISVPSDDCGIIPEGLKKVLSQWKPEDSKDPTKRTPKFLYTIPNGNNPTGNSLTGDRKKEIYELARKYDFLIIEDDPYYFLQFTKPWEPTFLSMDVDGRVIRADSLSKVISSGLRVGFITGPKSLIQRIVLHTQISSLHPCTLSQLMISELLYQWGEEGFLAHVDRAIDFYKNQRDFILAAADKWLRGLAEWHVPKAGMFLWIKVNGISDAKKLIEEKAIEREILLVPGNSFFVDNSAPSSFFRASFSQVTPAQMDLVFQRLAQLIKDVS
KMO (Rattus norvegicus, UniProt O88867), sequence (O88867 whole entry): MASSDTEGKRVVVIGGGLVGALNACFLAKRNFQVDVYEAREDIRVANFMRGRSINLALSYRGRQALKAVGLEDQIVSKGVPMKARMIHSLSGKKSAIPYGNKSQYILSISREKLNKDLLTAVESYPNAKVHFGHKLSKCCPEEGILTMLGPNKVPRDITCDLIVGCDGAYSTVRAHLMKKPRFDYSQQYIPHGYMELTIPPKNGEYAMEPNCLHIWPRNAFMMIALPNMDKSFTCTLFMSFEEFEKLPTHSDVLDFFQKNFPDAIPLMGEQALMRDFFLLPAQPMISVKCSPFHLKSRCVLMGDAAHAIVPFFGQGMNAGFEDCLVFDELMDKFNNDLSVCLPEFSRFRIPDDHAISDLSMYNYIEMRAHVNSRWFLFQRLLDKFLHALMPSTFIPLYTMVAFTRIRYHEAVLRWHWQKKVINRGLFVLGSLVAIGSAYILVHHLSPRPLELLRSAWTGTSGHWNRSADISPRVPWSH

As a reminder, the IC50 is the point on the concentration scale where inhibition reaches its midpoint. With `COc1ccc(S(=O)(=O)Nc2nc(-c3cccc([N+](=O)[O-])c3)cs2)cc1OC` [Ro 61-8048, 3,4-dimethoxy-[-N-4-(nitrophenyl)thiazol-2yl]-benzenesulfonamide], the IC50 on KMO [1] turned out to be 37 nM. Besides, in data set [2] (setting [14]), the “Plasma concentration relative to IC50 for KMO” value is reported as “more than eightfold” and the “Ro 61-8048 released from JM6, concentration in plasma” value is given as ~ 280 nM. The “Ro 61-8048 released from JM6 in brain or muscle homogenates” value in data set [2] (R6/2 mice chronically treated with JM6, data not shown) was “could not be detected”. The “Muscle and liver levels after acute dosing” value in [3] (WT mice, JM6 300 mg/kg p.o.) is recorded as “negligible”. Further, the “Ro 61-8048 released from JM6, brain level as % of plasma levels” value in [3] (WT mice, single JM6 300 mg/kg p.o.) is 0.002%. For the same molecule, in data set [3] (setting [15]), the “Ro 61-8048 released from JM6, concentration in brain” value is 18 nM and 18 ± 5 nM; the “Ro 61-8048 released from JM6, concentration in plasma” value is 7 µM and 7.2 ± 0.8 µM. In addition, in data set [3] (mice, JM6 300 mg/kg p.o.), the “Ro 61-8048 released from JM6, concentration in liver” value came to 132 nM and the “Ro 61-8048 released from JM6, concentration in muscle” value is 149 nM. The Metabolic stability entry in data set [4] is listed as “metabolically unstable”. Further, the “Level in brain dialysate” value with KMO [5] was under 10 nM.
As to `COc1ccc(S(=O)(=O)Nc2nc(-c3cccc([N+](=O)[O-])c3)c(CN3CCCCC3)s2)cc1OC` [JM6, 2-(3,4-dimethoxybenzenesulfonylamino)-4-(3-nitrophenyl)-5-(piperidin-1-yl)methylthiazole], in the data set with APPtg mice [6], the “Increase in distance traveled in the open arm of the EPM, APPtg mice” value is reported as “significantly attenuated”; the “Time spent in the open arm of the elevated plus maze, APPtg mice” value is on record as “not significantly different from WT littermate controls”; the “Total distance traveled in the EPM (open and closed arm), APPtg mice” value is given as “not changed”. In addition, in the data set on APPtg mice [7], the “Brain 3-HK levels, APPtg mice, vs control mice” value is “not significantly different”; the “Brain KMO activity, APPtg mice, vs control mice” value was “not significantly different”; the “Brain KYNA levels, APPtg mice” value is on record as “increased”; the “Brain QUIN levels, APPtg mice, vs control mice” value is “not significantly different”. In the data set on APPtg mice [7], the “Plasma KYNA levels, APPtg mice” value is listed as “increased” and the “Plasma QUIN levels, APPtg mice, vs control mice” value is on record as “not significantly different”. In the data set with APPtg mice [8] (JM6 75 mg/kg/day p.o. for 120 days, ~7 months of age), the “Synaptic loss (synaptophysin) in cortex and hippocampus, APPtg mice” value is on record as “prevented”. Also, the “Aβ plaque load in hippocampus and cortex, APPtg mice” value in the data set with APPtg mice [8] (setting [16]) was “did not have a significant effect”. Moreover, the “Inclusion body size or abundance in frontoparietal cortex, R6/2 mice” value with R6/2 mice [9] (JM6 25 mg/kg/day p.o. from 4 weeks of age, EM48 immunostaining) was “did not influence”. Moreover, the “Iba1-positive cells (microglia) vs vehicle-treated controls, R6/2 mice” value with R6/2 mice [9] (JM6 7.5 or 25 mg/kg/day p.o. from 4 weeks of age) is listed as “significantly fewer”. Also, in the data set on R6/2 mice [9] (setting [17]), the “Fos immunoreactivity in striatum and cortex, R6/2 mice” value is recorded as “prevented the loss”; the “Synaptophysin in striatum and cortex, R6/2 mice” value is “prevented the loss”. Besides, the “Muscle and liver levels after acute dosing” value in [3] (WT mice, JM6 300 mg/kg p.o.) was “negligible”. In [3] (setting [18]), the “JM6 concentration in brain” value turned out to be 119 ± 46 nM and the “JM6 concentration in plasma” value was 39.1 ± 13.2 µM. In addition, the “Spatial memory in Morris water maze, WT mice” value in the data set with APPtg mice [10] (JM6 75 mg/kg/day p.o.) is reported as “no effect”. The “Spatial memory in Morris water maze, APPtg mice” value in the data set with APPtg mice [10] (JM6 75 mg/kg/day p.o. from 2 months of age, tested at ~6 months) is reported as “significant improvement”. In addition, in the data set with APPtg mice [10] (setting [16]), the “Spatial learning in WT or APPtg mice” value is “did not influence”. For the same molecule, in the data set with WT mice, the “Adverse effects on open field behavior, motor performance, or body weight” value is “no adverse effects”. Besides, in the data set with KMO [11], the “Extracellular glutamate levels in the brain (prefrontal cortex)” value is recorded as “significant reduction”. Moreover, the “Level in brain dialysate” value with KMO [5] is under 10 nM. The “Serum KYNA level, % of baseline” value in the data set with KMO [5] (single JM6 100 mg/kg p.o., by 5 h) came to 344%. Also, the “Extracellular KYNA level in brain (striatum), % of baseline” value in the data set on KMO [5] (single JM6 100 mg/kg p.o., by 5 h, microdialysis) came out at 180%. For the same molecule, the “Body weight of R6/2 mice” value with R6/2 mice [12] is “did not influence”. The “Performance on accelerating rotarod, R6/2 mice” value in the data set on R6/2 mice [12] (early stages of disease) was “modestly improved”.
On to `CCS(=O)(=O)c1ccc(C(=O)C[C@H](N)C(=O)O)cc1.Cl` [ESBA, (S)-(4-ethylsulfonyl)benzoylalanine hydrochloride], for which, in data set [13], the “Effect on JM6-induced increases in brain KYNA” value is “prevented completely” and the “Effect on KYNA levels in serum” value was “unaffected”.
